# Publication PMC12661400, “Oral bioavailable ITRI-148 degrades androgen receptor variants and overcomes antiandrogen resistance in advanced prostate cancer” (Neoplasia (New York, N.Y.), 2025)
# Residue numbers refer to the chain shown, from its start.
# What was measured:
# [1] = target: T1, AR(L702H) (Homo sapiens, UniProt P10275, L702H); test: Degradation of ectopic Myc-tagged AR mutant in DU145 cells (western blot); assay type: cell-based; details: 10 μM, 24 hours
# T1 construct: expressed in transfected cells; host or cells: DU145
# T1 sequence (P10275 1-920 L702H): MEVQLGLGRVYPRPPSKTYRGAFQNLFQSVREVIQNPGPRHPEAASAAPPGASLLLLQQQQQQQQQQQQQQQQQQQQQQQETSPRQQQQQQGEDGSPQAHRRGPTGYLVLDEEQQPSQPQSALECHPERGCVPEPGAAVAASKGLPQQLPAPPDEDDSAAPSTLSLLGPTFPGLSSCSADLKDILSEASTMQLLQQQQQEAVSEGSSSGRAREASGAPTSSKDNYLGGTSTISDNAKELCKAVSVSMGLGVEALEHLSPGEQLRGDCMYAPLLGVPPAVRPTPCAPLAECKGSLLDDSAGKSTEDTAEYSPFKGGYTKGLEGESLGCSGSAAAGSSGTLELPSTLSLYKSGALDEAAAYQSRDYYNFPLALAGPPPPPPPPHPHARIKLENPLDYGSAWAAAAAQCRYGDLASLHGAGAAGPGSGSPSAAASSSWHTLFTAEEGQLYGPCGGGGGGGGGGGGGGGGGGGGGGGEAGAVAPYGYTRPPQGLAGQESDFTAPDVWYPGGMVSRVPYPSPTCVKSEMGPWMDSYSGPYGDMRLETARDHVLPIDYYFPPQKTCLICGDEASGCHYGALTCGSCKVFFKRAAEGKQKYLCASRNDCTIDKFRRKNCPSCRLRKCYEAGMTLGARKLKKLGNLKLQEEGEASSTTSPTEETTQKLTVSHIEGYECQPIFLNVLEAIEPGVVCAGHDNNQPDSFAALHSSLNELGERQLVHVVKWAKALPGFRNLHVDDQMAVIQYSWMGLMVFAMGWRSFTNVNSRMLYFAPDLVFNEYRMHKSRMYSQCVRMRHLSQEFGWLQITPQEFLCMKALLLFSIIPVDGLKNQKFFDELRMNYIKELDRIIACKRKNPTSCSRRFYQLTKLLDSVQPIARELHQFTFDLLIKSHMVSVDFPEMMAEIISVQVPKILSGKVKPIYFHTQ
# Source text: (§1) pLenti4/TO/Flag-AR and pLenti4/TO/Flag-AR(∆LBD) plasmids are as described previously. To generate pLenti4/TO/Flag-AR-V7 plasmid, the DNA fragment of AR-V7 was amplified from pEGFP-C1-AR V7, a gift from Michael A Mancini (Addgene plasmid # 86856), and inserted into the pLenti4/TO plasmid carrying a N-terminal Flag tag between BamH1 and XhoI. The AR(L702H) and AR(H875Y) mutants were generated by site-directed mutagenesis of pCMV-Myc-AR, which is previously constructed and described in [22]. Primers used in the cloning and mutagenesis are: […]
# (§2) Cell lysis, Western blotting, and AR ubiquitination were performed as described in [17]. […]
# (§3) Fig. 1 ITRI-148 induces degradation of both AR and AR-V7 proteins in CRPC cells. […] AR-V7 expression was detected using an anti-Flag antibody. […] An N-terminal AR antibody was used to detect both full-length AR and LBD-truncated variants (AR-V(ΔLBD)) in CWR22Rv1 cells, while AR-V7 was detected using an AR-V7-specific antibody. DC₅₀ values were calculated from normalized band intensities, and Dₘₐₓ represents the maximal degradation achieved at 10 μM ITRI-148. (D) Immunofluorescence staining of AR after 24 or 48 hours of ITRI-148 treatment, detected using an N-terminal AR antibody. […] Quantified AR levels are as indicated. […]
# [2] = target: T2, AR(H875Y) (Homo sapiens, UniProt P10275, H875Y); test: as above; assay type: cell-based; details: 10 μM, 24 hours
# T2 construct: expressed in transfected cells; host or cells: DU145
# T2 sequence (P10275 1-920 H875Y): T1 sequence (P10275 1-920 L702H) with H702L, H875Y
# Source text: as §1, §2, §3
structure (smiles),measurement,setting,value
O=C1CCC(N2C(=O)c3cccc(NCC(=O)N4CCC(N5CCC(C#Cc6ccc(C7CCN(C8=Nn9c(nnc9C(F)(F)F)CC8)CC7)cc6)CC5)CC4)c3C2=O)C(=O)N1 (centres unmarked) [ITRI-148],degradation of Myc-tagged AR mutant L702H,[1],degraded
same,degradation of Myc-tagged AR mutant H875Y,[2],degraded
